Consider 13 molecules from patent US10383850B2, “Indazole and indole derivatives as inhibitors of retinoic acid related orphan receptor gamma (ROR gamma) for the treatment of immune-related diseases” (ORCA PHARMACEUTICALS LIMITED, priority 2014, dated 2019).

pIC50: −log10 of the molar value.

The target of one assay is RORγ ligand binding domain (Homo sapiens (Human), UniProt P51449). Description: RORγ FRET assay (SRC-1 peptide binding to RORγ ligand binding domain).
Sequence of RORγ ligand binding domain (P51449 258-518): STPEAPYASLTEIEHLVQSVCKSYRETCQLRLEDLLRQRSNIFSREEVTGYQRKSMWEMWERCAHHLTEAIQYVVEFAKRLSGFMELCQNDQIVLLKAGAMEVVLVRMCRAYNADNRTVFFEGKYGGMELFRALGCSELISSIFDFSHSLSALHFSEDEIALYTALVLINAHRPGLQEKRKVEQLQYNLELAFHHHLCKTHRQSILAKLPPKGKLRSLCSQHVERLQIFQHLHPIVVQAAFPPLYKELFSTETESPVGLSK
Conditions: not given
For orientation: pIC50 means the IC50 on a negative log10 scale, so that one unit is a factor of ten. Molecule `O=C(O)c1ccc(-n2cc(Cc3c(Cl)cccc3C(F)(F)F)c3cccnc32)cc1` [Compound 1, 4-(3-{[2-chloro-6-(trifluoromethyl)phenyl]methyl}-1H-pyrrolo[2,3-b]pyridin-1-yl)benzoic acid] had a negative logarithm of the IC50 (pIC50) of 6.71.

The same assay, now with this note: read-out: RORγ FRET - Mean IC50.
In the case of `O=C(O)c1ccc(-n2cc(Cc3c(Cl)cccc3C(F)(F)F)c3ccccc32)cc1` [Compound 2, 4-(3-{[2-chloro-6-(trifluoromethyl)phenyl]methyl}-1H-indol-1-yl)benzoic acid], the pIC50 was 7.14.

In a further assay the test system is Human CD4+CCR6+ T cells (TH17 cell differentiation). The assay can be described thus: Human Th17 cell differentiation assay (IL-17A in extracellular media by ELISA). The class given is cell-based. Conditions: 96 h, IL17A in extracellular media by sandwich ELISA, 4 days with cytokine cocktail and antiCD2/CD3/28 beads, read-out: Inhibition of TH17 cell differentiation - Mean IC50.
As to `O=C(O)c1ccc(-n2cc(Cc3c(Cl)cccc3C(F)(F)F)c3cccnc32)cc1` [Compound 1, 4-(3-{[2-chloro-6-(trifluoromethyl)phenyl]methyl}-1H-pyrrolo[2,3-b]pyridin-1-yl)benzoic acid], the negative-log IC50 (pIC50) is 6.85.
The same measure, in the same setting: under `COc1cccc(F)c1C(=O)c1cn(-c2ccc(C(=O)O)cc2)c2ccccc12` [Compound 4, 4-[3-(2-fluoro-6-methoxy-benzoyl)indol-1-yl]benzoic acid] stands 5.83.
For `COc1cccc(F)c1C(=O)c1cn(-c2ccc(C(=O)O)cc2)c2c(F)cccc12` [Compound 5, 4-[7-fluoro-3-(2-fluoro-6-methoxy-benzoyl)indol-1-yl]benzoic acid], the pIC50 is 6.09.
The same measure, in the same setting: under `O=C(O)c1ccc(-n2cc(Cc3c(Cl)cccc3C(F)(F)F)c3ccccc32)cc1O` [Compound 6, 4-[3-[[2-chloro-6-(trifluoromethyl)phenyl]methyl]indol-1-yl]-2-hydroxy-benzoic acid] stands 8.32; under `Cc1cccc2c(C(=O)c3c(Cl)cccc3C(F)(F)F)cn(-c3ccc(C(=O)O)cc3)c12` [Compound 7, 4-[3-[2-chloro-6-(trifluoromethyl)benzoyl]-7-methyl-indol-1-yl]benzoic acid], 6.30.
For `O=C(O)c1ccc(-n2cc(C(=O)c3c(Cl)cccc3C(F)(F)F)c3cccc(F)c32)nc1` [Compound 8, 6-[3-[2-chloro-6-(trifluoromethyl)benzoyl]-7-fluoro-indol-1-yl]pyridine-3-carboxylic acid], the pIC50 is 7.40.
Consider `Cc1cccc2c(C(=O)c3c(Cl)cccc3Cl)cn(-c3ccc(C(=O)O)cc3)c12` [Compound 9, 4-[3-(2,6-dichlorobenzoyl)-7-methyl-indol-1-yl]benzoic acid], for which the pIC50 is 5.80.
Same read-out and setting: with `COc1cccc(F)c1C(=O)c1nn(-c2ccc(C(=O)O)cc2)c2ccccc12` [Compound 10, 4-[3-(2-fluoro-6-methoxy-benzoyl)indazol-1-yl]benzoic acid] the figure was 6.34.
Same read-out and setting: under `O=C(O)c1ccc(-n2cc(C(=O)c3c(F)cccc3OC(F)(F)F)c3cccc(F)c32)cc1` [Compound 12, 4-[7-fluoro-3-[2-fluoro-6-(trifluoromethoxy)benzoyl]indol-1-yl]benzoic acid] stands 6.72.
Same read-out and setting: under `O=C(O)c1ccc(-n2cc(C(=O)c3c(F)cccc3OC(F)(F)F)c3cccc(F)c32)c(F)c1` [Compound 13, 3-fluoro-4-[7-fluoro-3-[2-fluoro-6-(trifluoromethoxy)benzoyl]indol-1-yl]benzoic acid] stands 6.74; under `O=C(O)c1ccc(-n2cc(C(=O)c3c(F)cccc3OC(F)(F)F)c3ccccc32)cc1` [Compound 14, 4-[3-[2-fluoro-6-(trifluoromethoxy)benzoyl]indol-1-yl]benzoic acid], 6.47.

Staying with this assay, now noted: 96 h, read-out: Inhibition of TH17 cell differentiation - Mean IC50.
Consider `O=C(O)c1ccc(-n2cc(Cc3c(Cl)cccc3C(F)(F)F)c3ccccc32)cc1` [Compound 2, 4-(3-{[2-chloro-6-(trifluoromethyl)phenyl]methyl}-1H-indol-1-yl)benzoic acid], for which the pIC50 is 7.47.
Regarding `O=C(O)c1ccc(-n2cc(C(=O)c3c(Cl)cccc3C(F)(F)F)c3cncnc32)cc1` [Compound 3, 4-[5-[2-chloro-6-(trifluoromethyl)benzoyl]pyrrolo[2,3-d]pyrimidin-7-yl]benzoic acid], the negative-log IC50 (pIC50) was 6.45.
